Measured values published in ChEMBL document CHEMBL5291721, “A preclinical secondary pharmacology resource illuminates target-adverse drug reaction associations of marketed drugs” (Nat Commun, 2023).

Experiments:
[1] = molecular target: Gamma-aminobutyric acid receptor subunit alpha-1/alpha-2/beta-2/gamma-2 (Homo sapiens, UniProt P14867+P18507+P47869+P47870); type: protein-complex assay
[2] = molecular target: Vascular endothelial growth factor receptor 2 (Homo sapiens, UniProt P35968); type: functional
Sequence of Vascular endothelial growth factor receptor 2 (P35968 whole entry): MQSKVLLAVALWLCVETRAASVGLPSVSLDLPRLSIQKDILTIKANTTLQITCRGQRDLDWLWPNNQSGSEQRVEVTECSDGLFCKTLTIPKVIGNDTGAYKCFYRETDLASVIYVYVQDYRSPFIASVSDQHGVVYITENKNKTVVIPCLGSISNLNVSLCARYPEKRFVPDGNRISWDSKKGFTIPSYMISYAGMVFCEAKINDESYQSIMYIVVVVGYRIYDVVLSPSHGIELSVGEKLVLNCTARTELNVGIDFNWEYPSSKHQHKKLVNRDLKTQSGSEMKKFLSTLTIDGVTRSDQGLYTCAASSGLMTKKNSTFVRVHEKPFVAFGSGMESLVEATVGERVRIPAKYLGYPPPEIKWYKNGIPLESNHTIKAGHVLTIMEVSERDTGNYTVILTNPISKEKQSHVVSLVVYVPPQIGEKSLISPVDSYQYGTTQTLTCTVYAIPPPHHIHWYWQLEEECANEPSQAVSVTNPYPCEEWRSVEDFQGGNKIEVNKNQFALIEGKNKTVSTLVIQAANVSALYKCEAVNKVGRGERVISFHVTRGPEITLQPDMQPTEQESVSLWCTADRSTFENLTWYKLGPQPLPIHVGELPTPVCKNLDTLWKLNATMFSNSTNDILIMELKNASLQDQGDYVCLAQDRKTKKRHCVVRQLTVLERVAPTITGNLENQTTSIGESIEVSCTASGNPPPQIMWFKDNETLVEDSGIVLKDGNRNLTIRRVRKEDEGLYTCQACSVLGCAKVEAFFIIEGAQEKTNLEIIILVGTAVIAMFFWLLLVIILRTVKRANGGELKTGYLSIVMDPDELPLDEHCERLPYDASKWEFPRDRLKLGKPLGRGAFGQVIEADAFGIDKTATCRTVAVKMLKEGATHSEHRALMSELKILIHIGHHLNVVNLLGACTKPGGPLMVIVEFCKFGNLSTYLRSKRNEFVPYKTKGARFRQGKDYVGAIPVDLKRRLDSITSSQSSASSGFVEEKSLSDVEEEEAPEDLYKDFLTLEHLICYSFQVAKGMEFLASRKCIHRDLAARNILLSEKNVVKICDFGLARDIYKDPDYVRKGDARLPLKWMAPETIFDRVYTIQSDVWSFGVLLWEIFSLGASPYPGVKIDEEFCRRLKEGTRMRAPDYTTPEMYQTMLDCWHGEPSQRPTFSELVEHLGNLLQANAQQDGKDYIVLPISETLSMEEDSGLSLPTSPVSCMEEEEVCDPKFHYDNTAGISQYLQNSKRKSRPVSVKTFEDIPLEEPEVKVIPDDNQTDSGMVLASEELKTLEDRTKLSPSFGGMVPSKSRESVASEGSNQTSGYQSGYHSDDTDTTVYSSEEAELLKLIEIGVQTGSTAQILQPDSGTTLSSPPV

[3] = molecular target: T1, Alpha-2A adrenergic receptor (Homo sapiens, UniProt P08913); type: functional, cell-based
T1 sequence (P08913 whole entry): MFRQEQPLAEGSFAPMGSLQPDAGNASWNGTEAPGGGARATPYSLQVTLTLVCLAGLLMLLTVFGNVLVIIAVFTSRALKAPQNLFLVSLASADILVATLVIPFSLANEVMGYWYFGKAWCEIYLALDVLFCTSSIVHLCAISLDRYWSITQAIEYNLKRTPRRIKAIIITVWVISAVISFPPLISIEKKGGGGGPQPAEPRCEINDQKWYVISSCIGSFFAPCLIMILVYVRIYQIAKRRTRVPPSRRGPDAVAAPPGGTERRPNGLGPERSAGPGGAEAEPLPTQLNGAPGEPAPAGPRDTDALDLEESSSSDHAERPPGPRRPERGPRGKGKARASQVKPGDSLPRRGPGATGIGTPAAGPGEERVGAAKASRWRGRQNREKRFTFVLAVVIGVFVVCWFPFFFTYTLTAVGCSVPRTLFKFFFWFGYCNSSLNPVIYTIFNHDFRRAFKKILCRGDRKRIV

[4] = molecular target: T2, Type-1 angiotensin II receptor (Homo sapiens, UniProt P30556)
T2 sequence (P30556 whole entry): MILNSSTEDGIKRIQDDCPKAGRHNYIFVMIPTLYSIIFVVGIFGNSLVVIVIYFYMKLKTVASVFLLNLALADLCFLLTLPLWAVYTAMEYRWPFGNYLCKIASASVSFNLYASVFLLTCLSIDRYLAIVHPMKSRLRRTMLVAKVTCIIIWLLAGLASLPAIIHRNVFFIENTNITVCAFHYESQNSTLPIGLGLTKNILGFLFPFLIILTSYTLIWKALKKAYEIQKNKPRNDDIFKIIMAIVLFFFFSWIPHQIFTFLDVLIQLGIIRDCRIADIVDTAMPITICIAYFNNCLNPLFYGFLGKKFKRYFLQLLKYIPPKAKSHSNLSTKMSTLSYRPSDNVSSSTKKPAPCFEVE

D(1A) dopamine receptor = D(1A) dopamine receptor (Homo sapiens, UniProt P21728); type: functional, cell-based
Thromboxane A2 receptor = molecular target: T3, Thromboxane A2 receptor (Homo sapiens, UniProt P21731)
T3 sequence (P21731 whole entry): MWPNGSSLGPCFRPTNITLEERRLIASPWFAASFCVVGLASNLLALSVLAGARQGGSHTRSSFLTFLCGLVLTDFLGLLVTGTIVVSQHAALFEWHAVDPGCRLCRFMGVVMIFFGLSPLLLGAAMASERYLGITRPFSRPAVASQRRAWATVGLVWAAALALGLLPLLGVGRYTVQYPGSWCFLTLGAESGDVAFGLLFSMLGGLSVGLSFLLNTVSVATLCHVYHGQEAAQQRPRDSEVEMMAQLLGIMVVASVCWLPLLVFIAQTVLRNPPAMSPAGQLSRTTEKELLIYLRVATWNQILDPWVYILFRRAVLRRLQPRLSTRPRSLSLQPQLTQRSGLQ

[5] = molecular target: T1, Alpha-2A adrenergic receptor; type: functional, cell-based; remark: listed apart in the source
[6] = molecular target: T4, 5-hydroxytryptamine receptor 2B (Homo sapiens, UniProt P41595); type: functional, cell-based
T4 sequence (P41595 whole entry): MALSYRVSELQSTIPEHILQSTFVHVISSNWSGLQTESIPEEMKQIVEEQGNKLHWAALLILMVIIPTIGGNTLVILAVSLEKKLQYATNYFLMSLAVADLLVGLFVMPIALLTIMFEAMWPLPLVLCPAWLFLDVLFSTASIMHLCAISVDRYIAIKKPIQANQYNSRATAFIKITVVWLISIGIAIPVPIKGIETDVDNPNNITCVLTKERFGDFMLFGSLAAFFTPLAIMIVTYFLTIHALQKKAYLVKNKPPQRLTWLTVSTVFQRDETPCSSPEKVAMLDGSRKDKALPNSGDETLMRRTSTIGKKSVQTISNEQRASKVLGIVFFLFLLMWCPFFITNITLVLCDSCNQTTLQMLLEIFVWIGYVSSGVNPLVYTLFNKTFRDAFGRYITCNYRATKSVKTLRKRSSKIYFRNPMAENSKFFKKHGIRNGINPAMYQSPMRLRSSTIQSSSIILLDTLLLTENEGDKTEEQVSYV

[7] = molecular target: T5, Neuropeptide Y receptor type 1 (Homo sapiens, UniProt P25929)
T5 sequence (P25929 whole entry): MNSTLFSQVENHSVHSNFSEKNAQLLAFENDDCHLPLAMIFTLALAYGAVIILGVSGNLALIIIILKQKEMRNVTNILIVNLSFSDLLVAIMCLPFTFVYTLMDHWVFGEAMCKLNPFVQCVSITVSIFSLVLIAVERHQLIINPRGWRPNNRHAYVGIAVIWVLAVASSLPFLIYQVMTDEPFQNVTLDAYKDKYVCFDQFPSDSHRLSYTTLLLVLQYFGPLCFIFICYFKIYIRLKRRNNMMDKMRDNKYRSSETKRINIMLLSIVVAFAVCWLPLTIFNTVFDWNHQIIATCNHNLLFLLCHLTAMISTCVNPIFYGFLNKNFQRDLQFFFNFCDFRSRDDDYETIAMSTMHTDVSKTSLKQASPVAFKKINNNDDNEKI

[8] = molecular target: T6, 5-hydroxytryptamine receptor 3A (Homo sapiens, UniProt P46098); type: functional
T6 sequence (P46098 whole entry): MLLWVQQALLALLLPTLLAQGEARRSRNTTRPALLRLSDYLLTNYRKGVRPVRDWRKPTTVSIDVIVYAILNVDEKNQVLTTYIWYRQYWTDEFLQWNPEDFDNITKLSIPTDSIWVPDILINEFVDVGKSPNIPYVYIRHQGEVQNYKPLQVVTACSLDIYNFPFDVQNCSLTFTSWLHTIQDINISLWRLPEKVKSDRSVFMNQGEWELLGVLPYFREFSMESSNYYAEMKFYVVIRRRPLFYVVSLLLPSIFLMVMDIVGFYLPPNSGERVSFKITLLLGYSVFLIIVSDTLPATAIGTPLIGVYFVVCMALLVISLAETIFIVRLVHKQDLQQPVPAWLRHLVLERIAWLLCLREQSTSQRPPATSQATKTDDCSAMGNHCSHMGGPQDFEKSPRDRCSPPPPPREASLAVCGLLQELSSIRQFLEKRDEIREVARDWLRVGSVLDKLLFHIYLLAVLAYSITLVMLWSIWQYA

[9] = molecular target: T4, 5-hydroxytryptamine receptor 2B; type: functional, cell-based; remark: listed apart in the source
[10] = molecular target: T7, Gamma-aminobutyric acid receptor subunit alpha-1 (Rattus norvegicus, UniProt P62813)
T7 sequence (P62813 whole entry): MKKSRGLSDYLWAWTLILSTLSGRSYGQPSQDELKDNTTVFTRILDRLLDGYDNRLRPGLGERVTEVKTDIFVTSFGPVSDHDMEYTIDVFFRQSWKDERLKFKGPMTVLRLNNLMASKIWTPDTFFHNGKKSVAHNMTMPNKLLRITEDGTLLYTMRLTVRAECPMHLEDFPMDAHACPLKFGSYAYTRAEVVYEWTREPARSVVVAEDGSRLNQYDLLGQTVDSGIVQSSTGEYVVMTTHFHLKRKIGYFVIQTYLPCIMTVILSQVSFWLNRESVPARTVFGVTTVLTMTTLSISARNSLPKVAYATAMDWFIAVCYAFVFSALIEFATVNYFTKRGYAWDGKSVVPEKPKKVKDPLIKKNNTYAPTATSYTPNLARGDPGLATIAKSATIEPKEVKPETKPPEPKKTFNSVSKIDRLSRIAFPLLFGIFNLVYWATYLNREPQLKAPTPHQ

[11] = molecular target: T7, Gamma-aminobutyric acid receptor subunit alpha-1; remark: listed apart in the source
Adenosine receptor A2a = Adenosine receptor A2a (Homo sapiens, UniProt P29274)
Sequence of Adenosine receptor A2a (P29274 whole entry): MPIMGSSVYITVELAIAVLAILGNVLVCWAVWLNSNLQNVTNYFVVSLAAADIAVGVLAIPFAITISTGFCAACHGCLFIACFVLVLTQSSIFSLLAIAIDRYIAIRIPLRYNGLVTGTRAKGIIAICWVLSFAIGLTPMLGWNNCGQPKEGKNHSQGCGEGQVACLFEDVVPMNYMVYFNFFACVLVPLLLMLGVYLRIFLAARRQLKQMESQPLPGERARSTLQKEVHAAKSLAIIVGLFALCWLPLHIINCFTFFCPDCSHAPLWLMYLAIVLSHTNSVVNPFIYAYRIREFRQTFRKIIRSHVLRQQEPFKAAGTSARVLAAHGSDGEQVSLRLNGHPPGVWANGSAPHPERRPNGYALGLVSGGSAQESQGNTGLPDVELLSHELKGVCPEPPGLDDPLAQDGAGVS
Also: assay procedure not described here.

Sequence of Gamma-aminobutyric acid receptor subunit alpha-1/alpha-2/beta-2/gamma-2 (P14867 whole entry): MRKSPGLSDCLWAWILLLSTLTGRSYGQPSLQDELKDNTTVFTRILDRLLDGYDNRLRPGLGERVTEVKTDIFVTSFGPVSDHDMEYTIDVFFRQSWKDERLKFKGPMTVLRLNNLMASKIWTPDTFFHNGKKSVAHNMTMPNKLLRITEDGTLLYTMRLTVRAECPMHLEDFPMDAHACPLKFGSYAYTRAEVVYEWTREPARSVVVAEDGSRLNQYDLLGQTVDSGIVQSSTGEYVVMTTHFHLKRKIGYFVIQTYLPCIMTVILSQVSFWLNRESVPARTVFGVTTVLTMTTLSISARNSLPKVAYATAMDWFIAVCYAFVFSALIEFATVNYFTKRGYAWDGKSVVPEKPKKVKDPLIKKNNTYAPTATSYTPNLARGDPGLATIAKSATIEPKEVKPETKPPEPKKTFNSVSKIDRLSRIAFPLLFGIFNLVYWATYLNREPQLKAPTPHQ
Sequence of Gamma-aminobutyric acid receptor subunit alpha-1/alpha-2/beta-2/gamma-2 (P47870 whole entry): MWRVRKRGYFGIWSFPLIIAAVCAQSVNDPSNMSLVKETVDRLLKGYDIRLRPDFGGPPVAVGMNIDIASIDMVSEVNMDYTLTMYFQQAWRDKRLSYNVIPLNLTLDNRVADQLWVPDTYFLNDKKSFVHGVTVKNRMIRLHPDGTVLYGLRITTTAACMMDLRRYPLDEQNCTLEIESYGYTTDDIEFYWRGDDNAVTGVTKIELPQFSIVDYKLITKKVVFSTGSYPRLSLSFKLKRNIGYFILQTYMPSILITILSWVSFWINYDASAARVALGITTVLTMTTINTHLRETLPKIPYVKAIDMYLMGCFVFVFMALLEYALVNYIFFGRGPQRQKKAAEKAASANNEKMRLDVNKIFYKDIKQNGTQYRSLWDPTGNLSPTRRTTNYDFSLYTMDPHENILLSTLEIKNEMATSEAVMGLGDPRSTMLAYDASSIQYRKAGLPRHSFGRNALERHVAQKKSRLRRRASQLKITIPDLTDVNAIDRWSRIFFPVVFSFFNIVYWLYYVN
Sequence of Gamma-aminobutyric acid receptor subunit alpha-1/alpha-2/beta-2/gamma-2 (P18507 whole entry): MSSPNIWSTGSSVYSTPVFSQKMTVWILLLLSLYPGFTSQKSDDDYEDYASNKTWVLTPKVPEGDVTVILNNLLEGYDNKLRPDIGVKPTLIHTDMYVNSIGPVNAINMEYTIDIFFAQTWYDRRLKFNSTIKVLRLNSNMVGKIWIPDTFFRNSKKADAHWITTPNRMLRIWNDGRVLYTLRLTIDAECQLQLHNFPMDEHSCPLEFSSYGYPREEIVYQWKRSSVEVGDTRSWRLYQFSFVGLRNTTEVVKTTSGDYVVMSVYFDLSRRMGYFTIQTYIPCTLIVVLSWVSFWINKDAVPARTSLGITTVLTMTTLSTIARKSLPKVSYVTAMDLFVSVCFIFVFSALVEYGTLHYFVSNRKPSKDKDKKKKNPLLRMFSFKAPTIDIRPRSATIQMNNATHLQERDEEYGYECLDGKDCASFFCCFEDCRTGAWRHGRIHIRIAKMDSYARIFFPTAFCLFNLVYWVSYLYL
Sequence of Gamma-aminobutyric acid receptor subunit alpha-1/alpha-2/beta-2/gamma-2 (P47869 whole entry): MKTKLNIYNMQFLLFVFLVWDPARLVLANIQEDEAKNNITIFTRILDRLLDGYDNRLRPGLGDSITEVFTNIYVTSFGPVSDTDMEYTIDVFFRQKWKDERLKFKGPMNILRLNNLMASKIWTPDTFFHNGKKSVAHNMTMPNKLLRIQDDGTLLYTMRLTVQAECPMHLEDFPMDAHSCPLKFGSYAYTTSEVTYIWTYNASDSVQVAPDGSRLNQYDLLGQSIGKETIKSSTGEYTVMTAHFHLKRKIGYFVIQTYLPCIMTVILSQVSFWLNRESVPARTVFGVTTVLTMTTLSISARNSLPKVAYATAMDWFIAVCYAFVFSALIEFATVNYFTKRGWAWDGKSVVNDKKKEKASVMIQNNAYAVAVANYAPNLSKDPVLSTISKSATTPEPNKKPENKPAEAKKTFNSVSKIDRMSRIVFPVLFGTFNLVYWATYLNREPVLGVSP

Compound: O=C(O)CC(O)(CC(=O)O)C(=O)O [CITRIC ACID]
- AC50 [1]: > 30 µM
- AC50 [2]: > 30 µM

Compound: Cc1onc(-c2c(Cl)cccc2Cl)c1C(=O)N[C@@H]1C(=O)N2[C@@H]1SC(C)(C)[C@@H]2C(=O)O [DICLOXACILLIN]
- AC50 [1]: > 30 µM
- AC50 [2]: > 30 µM

Compound: C[C@H]1O[C@@H](O[C@H]2[C@@H](O)C[C@H](O[C@H]3[C@@H](O)C[C@H](O[C@H]4CC[C@@]5(C)[C@H](CC[C@@H]6[C@@H]5CC[C@]5(C)[C@@H](C7=CC(=O)OC7)CC[C@]65O)C4)O[C@@H]3C)O[C@@H]2C)C[C@H](O)[C@@H]1O [DIGITOXIN]
- AC50 [1]: > 30 µM
- AC50 [2]: > 30 µM

Compound: OC(CCCN1CCCCC1)(c1ccccc1)c1ccccc1 [DIPHENIDOL]
- AC50 [1]: > 30 µM
- AC50 [2]: > 30 µM

Compound: CCn1cc(C(=O)O)c(=O)c2cc(F)c(N3CCNCC3)nc21 [ENOXACIN]
- AC50 [3]: > 10 µM
- AC50 [4]: > 30 µM
- AC50 (D(1A) dopamine receptor): > 10 µM
- AC50 (Thromboxane A2 receptor): 6.06 µM
- AC50 [5]: > 10 µM
- AC50 [6]: > 10 µM
- AC50 [7]: > 30 µM
- AC50 [8]: > 10 µM
- AC50 [9]: > 10 µM
- AC50 [10]: > 30 µM
- AC50 [2]: > 30 µM
- AC50 [11]: > 10 µM
- AC50 (Adenosine receptor A2a): > 30 µM

Compound: C[C@@H](O)[C@H]1C(=O)N2C(C(=O)O)=C([C@H]3CCCO3)S[C@H]12 [FAROPENEM]
- AC50 [1]: > 30 µM
- AC50 [2]: > 30 µM

Compound: COCCOc1cnc(NS(=O)(=O)c2ccccc2)nc1 [GLYMIDINE]
- AC50 [1]: > 30 µM
- AC50 [2]: > 30 µM

Compound: CC(N)CCCC(C)(C)O (stereo unspecified) [HEPTAMINOL]
- AC50 [1]: > 30 µM
- AC50 [2]: > 30 µM

Compound: CCC(=O)O[C@]1(C(=O)COC(C)=O)CC[C@H]2[C@@H]3CCC4=CC(=O)CC[C@]4(C)[C@H]3[C@@H](O)C[C@@]21C [HYDROCORTISONE ACEPONATE]
- AC50 [1]: > 30 µM
- AC50 [2]: > 30 µM

Compound: O=[N+]([O-])O[C@H]1CO[C@H]2[C@@H]1OC[C@H]2O[N+](=O)[O-] [ISOSORBIDE DINITRATE]
- AC50 [1]: > 30 µM
- AC50 [2]: > 30 µM

Compound: CC(=O)O[C@H]1C[C@H](O[C@H]2[C@@H](O)C[C@H](O[C@H]3[C@@H](O)C[C@H](O[C@H]4CC[C@@]5(C)[C@H](CC[C@@H]6[C@@H]5C[C@@H](O)[C@]5(C)[C@@H](C7=CC(=O)OC7)CC[C@]65O)C4)O[C@@H]3C)O[C@@H]2C)O[C@H](C)[C@H]1O[C@@H]1O[C@H](CO)[C@@H](O)[C@H](O)[C@H]1O [LANATOSIDE C]
- AC50 [10]: > 30 µM
- AC50 [2]: > 30 µM

Compound: Cc1cc(CCN2CCN(c3cccc(Cl)c3)CC2)n[nH]1 [MEPIPRAZOLE]
- AC50 [1]: > 30 µM
- AC50 [2]: > 30 µM

Compound: CC[N+](C)(CC)CCOC(=O)C1c2ccccc2Oc2ccccc21 [METHANTHELINE]
- AC50 [1]: > 30 µM
- AC50 [2]: > 30 µM

Compound: CO[C@H]1[C@@H](O)C[C@H](O[C@H]2[C@@H](O)C[C@H](O[C@H]3[C@@H](O)C[C@H](O[C@H]4CC[C@@]5(C)[C@H](CC[C@@H]6[C@@H]5C[C@@H](O)[C@]5(C)[C@@H](C7=CC(=O)OC7)CC[C@]65O)C4)O[C@@H]3C)O[C@@H]2C)O[C@@H]1C [METILDIGOXIN]
- AC50 [10]: > 30 µM
- AC50 [2]: > 30 µM

Compound: CCOC(=O)[C@H](CCc1ccccc1)N[C@@H](C)C(=O)N1Cc2cc(OC)c(OC)cc2C[C@H]1C(=O)O [MOEXIPRIL]
- AC50 [1]: > 30 µM
- AC50 [2]: > 30 µM
